pIC50: −log10 of the molar value. Where a name gives a salt, the structure may show the parent alone.

28 compounds from patent publication US9150555B2, “Amide derivative and use thereof” (Mitsubishi Tanabe Pharma Corporation, priority 2010, dated 2015) can be followed below.

The test system of data set [1] is IL-17 production of mouse spleen cells stimulated by rm-IL-23. Nature of the data set: Production of IL-17 induced when mouse spleen cells were stimulated by recombinant mouse interleukin-23 (rm-IL-23). In kind it is cell-based. Conditions: inhibition of IL-17 production, DBA/1J mouse spleen cells, rm-IL-23 1 nmol/L, ELISA. The protocol:
Effect on Production of IL-17 Induced when Mouse Spleen Cells were Stimulated by Recombinant Mouse Interleukin-23 (rm-IL-23)
An RPMI1640 (Sigma-Aldrich) was used as a medium, to which penicillin G potassium (50 units/mL; Gibco), streptomycin (50 μg/mL; Gibco) and 2-mercaptoethanol (50 μmol/l; Sigma-Aldrich) were added, and then 10% of fetal calf serum (FCS; Cell Culture Technology) inactivated at 56° C. for 30 minutes was added and used in the Test. The test compound was dissolved in dimethylsulfoxide and diluted with 10% FCS-containing RPMI1640 medium to a desired concentration and used in the test. The spleens were aseptically taken out from 6-7 week-old male DBA/1J mice (Charles River Japan, Inc.) and a single cell suspension of spleen cells was prepared and hemolyzed by hypotonic treatment with a mixture of 0.83% aqueous solution of ammonium chloride and Tris-HCl buffer of pH 7.65 (9:1). A cell suspension prepared by 10% FCS-containing RPMI1640 medium was added to flat-bottomed 96 well microtestplate at 2×10^5 cells/well. Test compounds and rm-IL-23 (R&D systems) were diluted with a medium to 1 to 1,000 nmol/L, and 1 nmol/L of the final concentration respectively, which were added and cultured at 37° C., 5% carbon dioxide and 95% air for 72 hours. After completion of the culture, culture supernatant was sampled and an amount of IL-17 production was determined by ELISA method. After sampling the supernatant, WST-8 (Seikagaku Corporation) was added at 10 μl/well and cultured at 37° C., 5% carbon dioxide and 95% air for 4 hours. Then, absorbance (O.D.: Optical Density) at 450 nm was measured by a microplate reader and the value was adopted as an index of cell survivability. An inhibition rate (%) was calculated according to the following formula on the basis of an average of an amount of IL-17 production and a O.D. values of the well containing a test compound of each concentration.
Based on the dose-response curve obtained by plotting the inhibition rate in the longitudinal axis and concentration in the horizontal axis, the concentration of the compound which inhibits the level to 50% of the value of the control group (IC50; nmol/L) was determined by linear regression analysis. The results was shown in the next Table 1

Data set [2] addresses hERG (Homo sapiens, UniProt Q12809). Nature of the data set: Effects on hERG current (whole-cell clamping). Conditions: human, HEK 293 cells that express hERG.
Experimental: Dimethylsulfoxide was used as a vehicle and hERG-expressed HEK 293 cells (Cytomyx) were used as test cells. Test cells were once cultured and subdivided and were stored under frozen condition in liquid nitrogen. In the study, thawed and subcultured cells having less than 30 of the passage number were used. Test cells were cultured in a carbon dioxide incubator BNP-110M (Tabai Espec Corp.) at 37±1° C., and 5.0±0.5% of carbon dioxide concentration. The component of culture medium was MEM (Minimum Essential Medium) supplemented with 10 vol % fetal bovine serum (non-activated), 1 mmol/L sodium pyruvate, 0.1 mmol/L non-essential amino acid, 100 U/mL penicillin with 100 μg/mL streptomycin. To select gene-expressing cells, 400 μg/mL G418 Sulphate (Invitrogen) was added to the culture medium. In the dishes for the measurement, the medium which not contain G418 Sulphate (Invitrogen) was used.
As to seeding of cells for measurement, subcultured cells which became confluent were treated with 0.25% trypsin-solution containing 1 mmol/L EDTA (Invitrogen) to remove from the plate, and seeded on sterilized collagen-coated cover glass (Iwaki, AGC Techno Glass Co., LTD). The medium was exchanged appropriately, including the day of measurement.
A perfusion method was applied to the experiment. Test cells were perfused (perfusion speed: approximately 4 mL/min) with an external solution containing specified concentrations of test compounds (component of external solution: 137 mmol/L of sodium chloride, 4 mmol/L of potassium chloride, 10 mmol/L of HEPES, 1.8 mmol/L of calcium chloride, 1 mmol/L of magnesium chloride and 10 mmol/L of glucose; adjusted to pH 7.4±0.1 with sodium hydroxide aqueous solution). […] When effects were observed, the perfusion was continued until the maximum response was observed. […] The data were obtained from one experiment or more and the cells which were incubated in a carbon dioxide incubator after seeding and attached to cover slips were used for the measurement.
A whole-cell clamping method was applied to the measurement. Test cells were perfused (perfusion speed: approximately 4 mL/min) with an external solution (component of external solution: 137 mmol/L of sodium chloride, 4 mmol/L of potassium chloride, 10 mmol/L of HEPES, 1.8 mmol/L of calcium chloride, 1 mmol/L of magnesium chloride and 10 mmol/L of glucose; adjusted to pH 7.4±0.1 with sodium hydroxide aqueous solution). A glass electrode with a resistance of 2 to 6 MΩ, filled with an internal solution (component: 130 mmol/L of potassium chloride, 1 mmol/L of magnesium chloride, 5 mmol/L of EGTA, 10 mmol/L of HEPES and 5 mmol/L of ATP adjusted to pH 7.2±0.1 with sodium hydroxide aqueous solution) was used. After rupturing cell membrane with glass electrode, the cell membrane voltage was held at −80 mV via a patch clamp software (pCLAMP9 [Axon CNS], Molecular Devices) using patch clamp amplifier (EPC8, HEKA). […] Test cells and the cell-attached cover glass were changed every treatment. Temperature of the fluid in a perfusion fluid tank was 24±2° C.
The obtained current was recorded on a computer via a patch clamp amplifier using patch clamp software. An evaluation item was a tail peak current.
A tail peak current was analyzed using analyzing software (Clampfit 9 [Axon CNS], MolecularDevices). Each 2 pulses of before and after perfusion of test compound for each concentration was analyzed, and a peak values of the tail current on the pulses were determined. The inhibition ratio was determined according to the following equation:
Setting [3] is: pH 7.4, hERG inhibition rate (%) (1 μM), 1 μM, tail peak current, hERG-expressed HEK 293 cells.

Chain of hERG (Q12809 whole entry): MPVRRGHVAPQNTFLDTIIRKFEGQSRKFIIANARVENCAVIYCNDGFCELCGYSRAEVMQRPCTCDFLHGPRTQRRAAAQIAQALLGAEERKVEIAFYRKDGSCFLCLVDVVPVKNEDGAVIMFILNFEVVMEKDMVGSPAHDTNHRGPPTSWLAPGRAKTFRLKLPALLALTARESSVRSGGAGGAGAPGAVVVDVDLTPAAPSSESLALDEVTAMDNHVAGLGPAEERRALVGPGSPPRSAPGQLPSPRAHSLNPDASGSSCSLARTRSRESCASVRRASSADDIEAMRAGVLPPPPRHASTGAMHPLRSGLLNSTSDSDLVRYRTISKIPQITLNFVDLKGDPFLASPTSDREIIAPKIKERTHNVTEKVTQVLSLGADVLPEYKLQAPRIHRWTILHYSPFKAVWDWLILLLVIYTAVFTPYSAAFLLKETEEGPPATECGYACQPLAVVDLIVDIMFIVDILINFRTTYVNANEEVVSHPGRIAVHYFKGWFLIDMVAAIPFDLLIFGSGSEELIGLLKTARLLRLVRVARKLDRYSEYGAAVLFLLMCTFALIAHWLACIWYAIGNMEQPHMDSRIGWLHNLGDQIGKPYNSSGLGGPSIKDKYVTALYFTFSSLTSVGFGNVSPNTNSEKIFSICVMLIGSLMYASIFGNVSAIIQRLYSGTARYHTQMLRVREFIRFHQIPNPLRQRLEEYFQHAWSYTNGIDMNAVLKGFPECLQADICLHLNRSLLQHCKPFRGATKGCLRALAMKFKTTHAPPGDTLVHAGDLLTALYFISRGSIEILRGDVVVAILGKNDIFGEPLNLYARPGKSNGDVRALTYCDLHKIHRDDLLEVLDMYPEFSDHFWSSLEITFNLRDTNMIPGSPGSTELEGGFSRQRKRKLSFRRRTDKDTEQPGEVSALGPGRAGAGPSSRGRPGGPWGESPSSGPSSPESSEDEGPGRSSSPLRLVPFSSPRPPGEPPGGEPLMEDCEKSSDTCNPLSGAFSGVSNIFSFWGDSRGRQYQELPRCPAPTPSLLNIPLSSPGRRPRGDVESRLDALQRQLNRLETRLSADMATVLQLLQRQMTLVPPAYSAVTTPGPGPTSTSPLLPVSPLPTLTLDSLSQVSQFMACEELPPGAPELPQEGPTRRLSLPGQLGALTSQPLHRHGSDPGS

For orientation: pIC50 means −log10 of the IC50, conventionally taken in molar units. In general, inhibition refers to how much of the control response was suppressed. Read a high inhibition as a response far below the control. Take `CC(C)c1c(C(=O)Nc2ccc([C@]3(C#N)CC[C@@H](N4CCOCC4)CC3)nc2)cnn1-c1ccc(C(F)(F)F)cn1` [Example D300, N-{6-[r-1-Cyano-c-4-(morpholin-4-yl)cyclohexyl]pyridin-3-yl}-5-isopropyl-1-[5-(trifluoromethyl)pyridin-2-yl]-1H-pyrazole-4-carboxamide]: the pIC50 in data set [1] (Mus musculus, 72 h) was 6.74. The same compound yielded an inhibition at 1 µM in data set [2] (setting [3]) of 26.1%.

`Cc1c(C(=O)Nc2ccc(C3=CCC(N4CCOCC4)CC3)nc2)cnn1-c1ccc(C(F)(F)F)cn1` (centres unmarked) [Example E1, 5-Methyl-N-{6-[4-(morpholin-4-yl)cyclohex-1-en-1-yl]pyridin-3-yl}-1-[5-(trifluoromethyl)-pyridin-2-yl]-1H-pyrazole-4-carboxamide mesylate]: the pIC50 in data set [1] (Mus musculus, 72 h) is 7.21. Besides, testing at 1 µM in data set [2] (setting [3]) gave an inhibition of 34.7%.

Turning to `Cc1c(C(=O)Nc2ccc([C@]3(O)CC[C@@H](N4CCOCC4)CC3)nc2)cnn1-c1ccc(C(F)(F)F)cn1` [Example E2, N-{6-[r-1-Hydroxy-c-4-(morpholin-4-yl)cyclohexyl]pyridin-3-yl}-5-methyl-1-[5-(trifluoromethyl)pyridin-2-yl]-1H-pyrazole-4-carboxamide], the pIC50 in data set [1] (Mus musculus, 72 h) is 6.75. The compound also showed an inhibition at 1 µM in data set [2] (setting [3]) of 24.4%.

Consider `Cc1c(C(=O)Nc2ccc(C3(C#N)CCC4(CC3)OCCO4)nc2)cnn1-c1ccc(C(F)(F)F)cc1` [Example E6], for which the pIC50 in data set [1] (Mus musculus, 72 h) is 7.55. The same compound had an inhibition at 1 µM in data set [2] (setting [3]) of 36.9%.

On to `N#CC1(c2ccc(NC(=O)c3ccc(-c4ccc(Cl)cc4)o3)cn2)CCC2(CC1)OCCO2` [Example E18], for which the pIC50 in data set [1] (Mus musculus, 72 h) is 7.30. The compound further came in with an inhibition at 1 µM in data set [2] (setting [3]) of 8.8%.

With `Cc1c(C(=O)Nc2ccc(C3CCC(=O)CC3)nc2)cnn1-c1ccc(F)cc1F` [Example E21], in data set [1] (Mus musculus, 72 h), the pIC50 was 6.75. The inhibition at 1 µM in data set [2] (setting [3]) amounted to 8.3%.

For the compound `Cc1ccc(-n2ncc(C(=O)Nc3ccc(C4CCC(=O)CC4)nc3)c2C)cc1` [Example E22], in data set [1] (Mus musculus, 72 h), the negative logarithm of the IC50 (pIC50) is 6.48. In data set [2] (setting [3]), this compound gave an inhibition at 1 µM of 2.7%.

`Cc1cc(NC(=O)c2cnn(-c3ccc(C(F)(F)F)cc3)c2C)cnc1C1=CCOCC1` [Example E30, N-[6-(3,6-Dihydro-2H-pyran-4-yl)-5-methylpyridin-3-yl]-5-methyl-1-[4-(trifluoromethyl)-phenyl]-1H-pyrazole-4-carboxamide]: the pIC50 in data set [1] (Mus musculus, 72 h) was 6.83. In addition, in data set [2] (setting [3]), testing at 1 µM gave an inhibition of 10.7%.

On to `Cc1c(C(=O)Nc2ccc(C3(C#N)CCC(=O)CC3)nc2)cnn1-c1ccc(C(F)(F)F)cn1` [Example F2, N-[6-(1-Cyano-4-oxocyclohexyl)pyridin-3-yl]-5-methyl-1-[5-(trifluoromethyl)pyridin-2-yl]-1H-pyrazole-4-carboxamide hydrochloride], for which the pIC50 in data set [1] (Mus musculus, 72 h) was 7.27. The compound further returned an inhibition at 1 µM in data set [2] (setting [3]) of 22.4%.

Consider `Cc1c(C(=O)Nc2ccc(C3(C#N)CCC(=O)CC3)nc2)cnn1-c1ccc(F)cc1` [Example F6], for which, in data set [1] (Mus musculus, 72 h), the negative-log IC50 (pIC50) was 6.97. This compound gave an inhibition at 1 µM in data set [2] (setting [3]) of 6.8%.

On to `Cc1c(C(=O)Nc2ccc(C3(C#N)CCC(=O)CC3)nc2)cnn1-c1ccc(Cl)c(Cl)c1` [Example F8], for which, in data set [1] (Mus musculus, 72 h), the pIC50 was 7.21. The compound further displayed an inhibition at 1 µM in data set [2] (setting [3]) of 15.4%.

Consider `Cc1c(C(=O)Nc2ccc(C3(C#N)CCC(=O)CC3)nc2)cnn1-c1ccc(F)c(F)c1` [Example F10], for which the pIC50 in data set [1] (72 hours) was 6.56. In data set [2] (pH 7.4), this compound yielded an inhibition at 1 µM of 8%.

As to `Cc1c(C(=O)Nc2ccc(C3CCC(=O)CC3)nc2)cnn1-c1ccc(C(C)(C)C)cc1` [Example F26], in data set [1] (Mus musculus, 72 h), the pIC50 was 6.49. Besides, the inhibition at 1 µM in data set [2] (setting [3]) worked out at 8.1%.

For the compound `Cc1cc(NC(=O)c2cnn(-c3ccc(C(F)(F)F)cn3)c2C)cnc1C1CCC(=O)CC1` [Example F32], the pIC50 in data set [1] (Mus musculus, 72 h) was 6.84. For the same compound, the inhibition at 1 µM in data set [2] (setting [3]) was 17.9%.

For `Cc1c(C(=O)Nc2ccc([C@H]3CC[C@H](O)CC3)nc2)cnn1-c1ccc(C(C)(C)C)cc1` [Example G4, trans-1-(4-tert-Butylphenyl)-N-[6-(4-hydroxycyclohexyl)pyridin-3-yl]-5-methyl-1H-pyrazole-4-carboxamide], the pIC50 in data set [1] (Mus musculus, 72 h) is 7.32. In data set [2] (setting [3]), this compound showed an inhibition at 1 µM of 5.2%.

On to `Cc1cc(NC(=O)c2cnn(-c3ccc(C(F)(F)F)cc3)c2C)cnc1C1=CCC(O)CC1` (centres unmarked) [Example G5, N-[6-(4-Hydroxycyclohex-1-en-1-yl)-5-methylpyridin-3-yl]-5-methyl-1-[4-(trifluoromethyl)-phenyl]-1H-pyrazole-4-carboxamide], for which the pIC50 in data set [1] (Mus musculus, 72 h) was 7.06. In data set [2] (setting [3]), this compound registered an inhibition at 1 µM of 11.7%.

As to `Cc1c(C(=O)Nc2ccc([C@]3(C#N)CC[C@@H](O)CC3)nc2)cnn1-c1ccc(Cl)c(Cl)c1` [Example G8], the negative logarithm of the IC50 (pIC50) in data set [1] (Mus musculus, 72 h) was 7.25. The inhibition at 1 µM in data set [2] (setting [3]) was found to be 1.9%.

`Cc1c(C(=O)Nc2ccc(C3CCC(O)CC3)nc2)cnn1-c1ccc(Cl)cc1` (centres unmarked) [Example G9]: the pIC50 in data set [1] (Mus musculus, 72 h) was 6.84. The inhibition at 1 µM in data set [2] (setting [3]) was 0.8%.

`Cc1c(C(=O)Nc2ccc(C3CCC(O)CC3)nc2)cnn1-c1ccc(C(F)(F)F)cc1` (centres unmarked) [Example G10]: the pIC50 in data set [1] (Mus musculus, 72 h) was 6.93. The compound also came in with an inhibition at 1 µM in data set [2] (setting [3]) of 5.1%.

Turning to `Cc1c(C(=O)Nc2ccc([C@]3(C#N)CC[C@@H](O)CC3)nc2)cnn1-c1ccc(OC(F)(F)F)cc1` [Example G11], the pIC50 in data set [1] (Mus musculus, 72 h) is 7.07. For the same compound, in data set [2] (setting [3]), the inhibition at 1 µM came to 12.2%.

Regarding `Cc1c(C(=O)Nc2ccc([C@]3(C#N)CC[C@@H](O)CC3)nc2)cnn1-c1ccc(F)c(F)c1` [Example G12], in data set [1] (Mus musculus, 72 h), the pIC50 is 6.58. Further, the inhibition at 1 µM in data set [2] (setting [3]) amounted to 6.5%.

`Cc1cc(NC(=O)c2cnn(-c3ncc(C(F)(F)F)cc3F)c2C)cnc1[C@H]1CC[C@H](O)CC1` [Example G29, trans-1-[3-Fluoro-5-(trifluoromethyl)pyridin-2-yl]-N-[6-(1-hydroxycyclohexan-4-yl)-5-methylpyridin-3-yl]-5-methyl-1H-pyrazole-4-carboxamide]: in data set [1] (Mus musculus, 72 h), the negative logarithm of the IC50 (pIC50) was 6.88. This compound also showed an inhibition at 1 µM in data set [2] (setting [3]) of 6.7%.

For the compound `COc1cc(C(F)(F)F)cnc1-n1ncc(C(=O)Nc2cnc([C@H]3CC[C@H](O)CC3)c(C)c2)c1C` [Example G30], in data set [1] (Mus musculus, 72 h), the pIC50 is 6.83. For the same compound, 1 µM produced 3.2% inhibition in data set [2] (setting [3]).

For `Cc1cc(NC(=O)c2cnn(-c3ncc(C(F)(F)F)cc3Cl)c2C)cnc1[C@H]1CC[C@H](O)CC1` [Example G32, trans-1-[3-Chloro-5-(trifluoromethyl)pyridin-2-yl]-N-[6-(1-hydroxycyclohexan-4-yl)-5-methylpyridin-3-yl]-5-methyl-1H-pyrazole-4-carboxamide], in data set [1] (Mus musculus, 72 h), the pIC50 was 6.98. Also, the inhibition at 1 µM in data set [2] (setting [3]) was determined as 7.9%.

For the compound `Cc1cc(NC(=O)c2cnn(-c3ccc(C(F)(F)F)cn3)c2C)cnc1[C@H]1CC[C@H](O)CC1` [Example J7, trans-N-[6-(4-Hydroxycyclohexyl)-5-methylpyridin-3-yl]-5-methyl-1-[5-(trifluoromethyl)-pyridin-2-yl]-1H-pyrazole-4-carboxamide], the pIC50 in data set [1] (Mus musculus, 72 h) was 7.17. Besides, testing at 1 µM in data set [2] (setting [3]) gave an inhibition of 7.9%.

Consider `Cc1c(C(=O)Nc2ccc([C@H]3CC[C@H](O)CC3)nc2)cnn1-c1ccc(OCCOC(C)(C)C)cc1` [Example J8], for which, in data set [1] (Mus musculus, 72 h), the negative logarithm of the IC50 (pIC50) is 7.28. Further, in data set [2] (setting [3]), 1 µM produced 11.3% inhibition.

In the case of `Cc1cc(NC(=O)c2cnn(-c3ccc(C4CC4)cn3)c2C)cnc1[C@H]1CC[C@H](O)CC1` [Example J12], the pIC50 in data set [1] (Mus musculus, 72 h) was 6.83. This compound also yielded an inhibition at 1 µM in data set [2] (setting [3]) of 10.8%.

Take `Cc1c(C(=O)Nc2ccc([C@]3(C#N)CC[C@@H](O)CC3)nc2)cnn1-c1ccc(C2CC2)cn1` [Example J13]: the negative logarithm of the IC50 (pIC50) in data set [1] (Mus musculus, 72 h) was 6.62. Also, the inhibition at 1 µM in data set [2] (setting [3]) came out at 10.7%.
